The test system of one experiment is Lemna paucicostata. Nature of the experiment: Herbicidal action: growth inhibition of duck weed (Lemna). In kind it is in vivo. As to conditions: Lemna aequinoctialis, increase in leaf area after 8-10 days, 25° C., permanent light, read-out: Growth inhibition (% relative to the control). The protocol: The herbicidal action of the compounds according to the invention is investigated using the representative test model below. The effect of the test substances on the growth of duck weed is determined by the following method:
The duct weed Lemna paucicostata was grown under sterile conditions and 250 ml glass vessels containing 100 ml of inorganic nutrient solution and supplemented with 1% sucrose, as described by Grossmann et al., Pesticide Science 35, (1992), 283-289. At the beginning of the test, 150 μl of a solution of active compound in acetone (stock solution: 100-fold concentrated) were pipetted into Petri dishes (diameter 6 cm, height 1.5 cm; Greiner, Frickenhausen) containing 15 ml of nutrient solution. (without added sucrose). Only the solvent component of the active compound solution was added to the nutrient solution for the control tests. Then, 4 Lemna plants were introduced into each dish, the dishes were covered with lids and incubated under permanent light conditions at 25° C. After 8-10 days, the increase in leaf area was determined using an imaging apparatus (Imago, Compulog Computer Syst., Böblingen) as growth parameter, and this was used to calculate the growth inhibition as a percentage relative to the control.

The test system of a further experiment is Plasmopara viticola. The experiment can be described thus: Fungicidal action: activity against Plasmopara viticola on grapevines (persistency). It is filed as in vivo. Conditions: grapevines c.v. Müller-Thurgau, inoculated 7 days after spraying, undersides of leaves assessed visually, untreated control 90. The text has this: Activity Against Plasmopara viticola
Leaves of potted grapevines c.v. “Müller-Thurgau” were sprayed to run off point with an aqueous preparation of active compound which had been prepared using a stock solution comprising 10% of active compound, 63% of cyclohexanone and 27% of emulsifier. In order to be able to assess the persistency of the substances, the plants were kept for 7 days in a greenhouse after the spray coating had dried on. Only then were the leaves inoculated with an aqueous zoospore suspension of Plasmopara viticola. The grapevines were then initially kept in a water vapor-saturated chamber at 24° C. for 48 hours and then in a greenhouse at 20 and 30° C. for 5 days. After this period of time, the plants were once more kept in a humid chamber for 16 hours to promote sporangiophore eruption. The extent of the infection on the undersides of the leaves was then determined visually.

`N#CC(C(=O)Nc1ccc(Cl)c(Cl)c1)c1ccccc1` (stereo not shown) [A, N-(3,4-dichlorophenyl)-2-cyano-2-phenylacetamide]: the inhibition (as a rule, the drop in the measured response relative to a control, in per cent) at 1 µM with Lemna paucicostata (concentration 1 μmolar) stood at 40%. The inhibition at 10 µM with Lemna paucicostata (concentration 10 μmolar) is 93%. Also, in the experiment with Lemna paucicostata (concentration 100 μmolar), the inhibition at 100 µM stood at 100%.
Turning to `N#CC(C(=O)Nc1cccc(Cl)c1)c1ccccc1` (stereo not shown) [No. 2, N-(3-chlorophenyl)-2-cyano-2-phenylacetamide], the “% infection of the leaves after application of an aqueous preparation containing 250 ppm of active compound” value in the experiment with Plasmopara viticola is given as 0%.

The values above are taken from patent publication US6613931B1 (priority 1999, dated 2003).
